# Experimental data reported in ChEMBL document CHEMBL1201862, “PubChem BioAssay data set” (2004).
#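 Values below derive from 48-hour exposures of cells grown in 96-well plates, with endpoints linearly interpolated between the two concentrations bracketing the appropriate inhibition level. GI50 marks 50% less growth.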 Active and inactive are the calls of the source. No stated cut-off is given here; in the data, active = GI50 up to about 1.1 µM and inactive = higher.
# What was measured:
# Assay in all cases: NCI tumour cell line growth inhibition, 48 h
# [1] = tested on: SN12C
# [2] = tested on: ACHN
# [3] = tested on: NCI-H522
# [4] = tested on: DU-145
# [5] = tested on: UACC-257
# [6] = tested on: LOX IMVI
# [7] = tested on: NCI-H460
# [8] = tested on: HOP-62
# [9] = tested on: COLO 205
# [10] = tested on: SF-268
# [11] = tested on: U-251
# [12] = tested on: K562
# [13] = tested on: HL-60
# [14] = tested on: EKVX
# [15] = tested on: SK-MEL-2
# [16] = tested on: M14
# [17] = tested on: SNB-19
# [18] = tested on: NCI-H226
# [19] = tested on: SF-539
# [20] = tested on: HCC 2998
SMILES,GI50 [1],GI50 [2],GI50 [3],GI50 [4],GI50 [5],GI50 [6],GI50 [7],GI50 [8],GI50 [9],GI50 [10],GI50 [11],GI50 [12],GI50 [13],GI50 [14],GI50 [15],GI50 [16],GI50 [17],GI50 [18],GI50 [19],GI50 [20]
O=C(CCN1CCOCC1)Nc1ccc(F)cc1F,> 100 µM (inactive),> 100 µM (inactive),> 100 µM (inactive),> 100 µM (inactive),> 100 µM (inactive),> 100 µM (inactive),> 100 µM (inactive),> 100 µM (inactive),> 100 µM (inactive),> 100 µM (inactive),> 100 µM (inactive),> 100 µM (inactive),> 100 µM (inactive),> 100 µM (inactive),> 100 µM (inactive),> 100 µM (inactive),> 100 µM (inactive),> 100 µM (inactive),> 100 µM (inactive),
COC(=O)CN1SC2(SC13C(C)(C)C(=O)C3(C)C)C(C)(C)C(=O)C2(C)C,48.3 µM (inactive),> 100 µM (inactive),,31.5 µM (inactive),48.2 µM (inactive),46.9 µM (inactive),> 10 µM (inactive),91 µM (inactive),37.3 µM (inactive),36.1 µM (inactive),94.4 µM (inactive),52.6 µM (inactive),,63.4 µM (inactive),60.7 µM (inactive),> 100 µM (inactive),> 100 µM (inactive),22.1 µM (inactive),> 100 µM (inactive),80.2 µM (inactive)
CC12CCc3ccccc3C1=Nc1ccccc12 (stereo not given),0.164 µM (active),64.7 µM (inactive),23.7 µM (inactive),> 100 µM (inactive),49.8 µM (inactive),40.8 µM (inactive),37.3 µM (inactive),86.1 µM (inactive),42.8 µM (inactive),98.2 µM (inactive),44.6 µM (inactive),31 µM (inactive),28.8 µM (inactive),25.1 µM (inactive),47.9 µM (inactive),32.3 µM (inactive),> 100 µM (inactive),21.8 µM (inactive),14.2 µM (inactive),
Clc1ccc(CCNCCNC2(c3cc4ccccc4s3)CCCCC2)cc1Cl,1.96 µM (inactive),1.73 µM (inactive),1.84 µM (inactive),1.88 µM (inactive),1.81 µM (inactive),1.74 µM (inactive),1.73 µM (inactive),1.26 µM (inactive),1.58 µM (inactive),1.79 µM (inactive),1.63 µM (inactive),2.31 µM (inactive),,2.08 µM (inactive),1.76 µM (inactive),2.01 µM (inactive),1.92 µM (inactive),1.87 µM (inactive),,1.5 µM (inactive)
Cn1c2ccccc2c2ccc3c(c21)C(=O)c1ccccc1C3=O,20.6 µM (inactive),12.4 µM (inactive),15.1 µM (inactive),84.5 µM (inactive),19.5 µM (inactive),15.9 µM (inactive),,18 µM (inactive),26.6 µM (inactive),18.7 µM (inactive),16.4 µM (inactive),11.8 µM (inactive),2.75 µM (inactive),12.5 µM (inactive),,27.2 µM (inactive),37.8 µM (inactive),30.1 µM (inactive),17.3 µM (inactive),41.9 µM (inactive)
O=C1c2ccccc2NC(=O)C2C1C(c1ccccc1)CC2(O)c1ccccc1 (stereo not given),> 100 µM (inactive),37 µM (inactive),,> 100 µM (inactive),79.4 µM (inactive),43.2 µM (inactive),34.7 µM (inactive),79.1 µM (inactive),17.5 µM (inactive),> 100 µM (inactive),,,53.1 µM (inactive),> 100 µM (inactive),21.9 µM (inactive),60.5 µM (inactive),35.2 µM (inactive),,> 100 µM (inactive),67 µM (inactive)
Clc1cccc(Cl)c1C1SCc2nc3cc4ccccc4cc3n21 (stereo not given),> 100 µM (inactive),> 100 µM (inactive),,> 100 µM (inactive),> 100 µM (inactive),,> 100 µM (inactive),> 100 µM (inactive),> 100 µM (inactive),> 100 µM (inactive),> 100 µM (inactive),> 100 µM (inactive),,> 100 µM (inactive),> 100 µM (inactive),> 100 µM (inactive),> 100 µM (inactive),> 100 µM (inactive),,> 100 µM (inactive)
O=C1N=C(S)NNC12c1ccccc1-c1ccccc12,> 10 µM (inactive),,,> 10 µM (inactive),> 10 µM (inactive),> 10 µM (inactive),5.42 µM (inactive),> 10 µM (inactive),> 10 µM (inactive),> 10 µM (inactive),> 10 µM (inactive),> 10 µM (inactive),> 10 µM (inactive),2.99 µM (inactive),,> 10 µM (inactive),,> 10 µM (inactive),> 10 µM (inactive),> 10 µM (inactive)
